Tests used:
Assay in all cases: KINOMEscan competitive binding, whole panel
panel of 203 kinases [1] = biological target: T1, panel of 203 kinases (Homo sapiens, UniProt P45983); conditions: 10 µM, n=1; kinase JNK1; read-out: Percent inhibition JNK1
T1 construct: purchased DiscoverX (KINOMEscan)
How it was run: (§1)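 Percentage inhibition reflects loss of kinase binding to solid-phase ATP-site probe ligands in the presence of compound. Kinases carry a T7 bacteriophage fusion.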

panel of 203 kinases [2] = biological target: T2, panel of 203 kinases (Homo sapiens, UniProt Q06187); conditions: 10 µM, n=1; kinase BTK; read-out: Percent inhibition BTK
T2 construct: purchased DiscoverX (KINOMEscan)
T2 sequence (Q06187 whole entry): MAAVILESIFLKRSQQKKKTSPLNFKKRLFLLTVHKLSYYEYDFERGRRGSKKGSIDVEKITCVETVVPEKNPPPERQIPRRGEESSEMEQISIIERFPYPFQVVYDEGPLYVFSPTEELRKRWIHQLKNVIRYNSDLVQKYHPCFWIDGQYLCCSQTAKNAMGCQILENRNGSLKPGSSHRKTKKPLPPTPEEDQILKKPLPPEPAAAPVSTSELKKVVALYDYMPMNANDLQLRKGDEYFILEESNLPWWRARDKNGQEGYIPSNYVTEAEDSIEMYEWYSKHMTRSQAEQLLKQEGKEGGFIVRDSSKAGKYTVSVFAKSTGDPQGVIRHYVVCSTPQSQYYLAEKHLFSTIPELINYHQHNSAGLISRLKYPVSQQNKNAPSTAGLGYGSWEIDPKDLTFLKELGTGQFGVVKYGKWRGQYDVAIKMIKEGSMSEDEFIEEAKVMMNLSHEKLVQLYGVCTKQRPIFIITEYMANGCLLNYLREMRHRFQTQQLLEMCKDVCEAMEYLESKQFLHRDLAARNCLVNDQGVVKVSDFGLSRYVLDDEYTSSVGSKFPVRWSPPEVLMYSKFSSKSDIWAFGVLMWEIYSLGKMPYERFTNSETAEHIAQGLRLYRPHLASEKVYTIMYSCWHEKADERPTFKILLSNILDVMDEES
How it was run: as §1

panel of 203 kinases [3] = biological target: T3, panel of 203 kinases (Homo sapiens, UniProt Q08881); conditions: 10 µM, n=1; kinase ITK; read-out: Percent inhibition ITK
T3 construct: purchased DiscoverX (KINOMEscan)
T3 sequence (Q08881 1-620): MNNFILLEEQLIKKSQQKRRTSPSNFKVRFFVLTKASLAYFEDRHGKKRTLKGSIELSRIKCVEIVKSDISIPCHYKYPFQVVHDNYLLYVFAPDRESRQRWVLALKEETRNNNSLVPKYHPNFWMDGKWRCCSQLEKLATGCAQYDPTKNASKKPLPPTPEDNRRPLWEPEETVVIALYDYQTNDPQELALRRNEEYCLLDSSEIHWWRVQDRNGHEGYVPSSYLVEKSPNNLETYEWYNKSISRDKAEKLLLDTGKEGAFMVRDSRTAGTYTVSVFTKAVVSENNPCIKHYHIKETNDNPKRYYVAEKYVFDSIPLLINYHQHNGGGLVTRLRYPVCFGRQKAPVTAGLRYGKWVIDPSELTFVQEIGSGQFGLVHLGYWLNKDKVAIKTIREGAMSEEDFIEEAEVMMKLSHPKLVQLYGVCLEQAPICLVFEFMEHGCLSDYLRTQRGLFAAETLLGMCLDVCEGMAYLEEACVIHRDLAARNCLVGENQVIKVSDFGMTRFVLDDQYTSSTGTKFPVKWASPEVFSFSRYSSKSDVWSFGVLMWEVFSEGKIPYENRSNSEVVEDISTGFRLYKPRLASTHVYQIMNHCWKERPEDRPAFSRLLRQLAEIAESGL
How it was run: as §1

panel of 203 kinases [4] = biological target: T4, panel of 203 kinases (Homo sapiens, UniProt Q8IVH8); conditions: 10 µM, n=1; kinase MAP4K3; read-out: Percent inhibition MAP4K3
T4 construct: purchased DiscoverX (KINOMEscan)
T4 sequence (Q8IVH8 1-894): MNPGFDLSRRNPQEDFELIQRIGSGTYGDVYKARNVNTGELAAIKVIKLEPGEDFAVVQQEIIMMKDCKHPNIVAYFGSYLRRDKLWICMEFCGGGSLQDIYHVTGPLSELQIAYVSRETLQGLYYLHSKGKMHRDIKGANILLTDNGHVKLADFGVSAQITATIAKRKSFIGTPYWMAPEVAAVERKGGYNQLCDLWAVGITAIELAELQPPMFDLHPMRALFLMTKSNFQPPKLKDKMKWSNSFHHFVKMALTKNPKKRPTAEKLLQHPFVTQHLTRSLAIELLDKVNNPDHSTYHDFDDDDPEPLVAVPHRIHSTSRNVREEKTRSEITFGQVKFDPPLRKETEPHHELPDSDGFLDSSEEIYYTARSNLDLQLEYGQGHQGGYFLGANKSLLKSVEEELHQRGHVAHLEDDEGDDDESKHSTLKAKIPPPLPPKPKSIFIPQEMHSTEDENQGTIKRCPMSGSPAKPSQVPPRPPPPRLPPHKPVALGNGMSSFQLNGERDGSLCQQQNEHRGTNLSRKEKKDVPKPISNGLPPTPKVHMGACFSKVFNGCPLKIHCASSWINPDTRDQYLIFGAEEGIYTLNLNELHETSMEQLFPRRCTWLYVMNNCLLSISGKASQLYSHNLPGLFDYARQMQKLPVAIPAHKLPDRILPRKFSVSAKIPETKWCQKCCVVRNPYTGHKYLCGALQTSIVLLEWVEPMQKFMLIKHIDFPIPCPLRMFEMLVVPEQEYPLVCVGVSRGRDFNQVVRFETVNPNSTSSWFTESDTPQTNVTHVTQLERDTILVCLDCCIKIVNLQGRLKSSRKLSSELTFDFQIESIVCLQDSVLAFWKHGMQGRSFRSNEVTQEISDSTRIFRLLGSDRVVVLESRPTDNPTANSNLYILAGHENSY
How it was run: as §1

panel of 203 kinases [5] = biological target: T5, panel of 203 kinases (Homo sapiens, UniProt Q8N5S9); conditions: 10 µM, n=1; kinase CAMKK1; read-out: Percent inhibition CAMKK1
T5 construct: purchased DiscoverX (KINOMEscan)
T5 sequence (Q8N5S9 whole entry): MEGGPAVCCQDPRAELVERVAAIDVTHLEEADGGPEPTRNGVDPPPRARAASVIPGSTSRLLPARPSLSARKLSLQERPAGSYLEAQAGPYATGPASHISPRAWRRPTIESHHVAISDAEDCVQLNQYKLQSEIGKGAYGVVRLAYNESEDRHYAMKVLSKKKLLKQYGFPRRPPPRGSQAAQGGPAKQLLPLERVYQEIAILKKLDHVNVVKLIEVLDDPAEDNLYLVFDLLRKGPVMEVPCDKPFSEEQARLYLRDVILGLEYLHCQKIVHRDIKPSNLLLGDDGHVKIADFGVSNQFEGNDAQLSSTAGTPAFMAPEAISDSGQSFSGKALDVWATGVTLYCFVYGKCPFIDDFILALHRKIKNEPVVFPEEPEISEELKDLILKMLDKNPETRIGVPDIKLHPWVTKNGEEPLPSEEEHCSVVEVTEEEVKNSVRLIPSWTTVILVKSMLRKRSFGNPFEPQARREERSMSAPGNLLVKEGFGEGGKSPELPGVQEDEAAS
How it was run: as §1

panel of 203 kinases [6] = biological target: T6, panel of 203 kinases (Homo sapiens, UniProt Q92918); conditions: 10 µM, n=1; kinase MAP4K1; read-out: Percent inhibition MAP4K1
T6 construct: purchased DiscoverX (KINOMEscan)
T6 sequence (Q92918 whole entry): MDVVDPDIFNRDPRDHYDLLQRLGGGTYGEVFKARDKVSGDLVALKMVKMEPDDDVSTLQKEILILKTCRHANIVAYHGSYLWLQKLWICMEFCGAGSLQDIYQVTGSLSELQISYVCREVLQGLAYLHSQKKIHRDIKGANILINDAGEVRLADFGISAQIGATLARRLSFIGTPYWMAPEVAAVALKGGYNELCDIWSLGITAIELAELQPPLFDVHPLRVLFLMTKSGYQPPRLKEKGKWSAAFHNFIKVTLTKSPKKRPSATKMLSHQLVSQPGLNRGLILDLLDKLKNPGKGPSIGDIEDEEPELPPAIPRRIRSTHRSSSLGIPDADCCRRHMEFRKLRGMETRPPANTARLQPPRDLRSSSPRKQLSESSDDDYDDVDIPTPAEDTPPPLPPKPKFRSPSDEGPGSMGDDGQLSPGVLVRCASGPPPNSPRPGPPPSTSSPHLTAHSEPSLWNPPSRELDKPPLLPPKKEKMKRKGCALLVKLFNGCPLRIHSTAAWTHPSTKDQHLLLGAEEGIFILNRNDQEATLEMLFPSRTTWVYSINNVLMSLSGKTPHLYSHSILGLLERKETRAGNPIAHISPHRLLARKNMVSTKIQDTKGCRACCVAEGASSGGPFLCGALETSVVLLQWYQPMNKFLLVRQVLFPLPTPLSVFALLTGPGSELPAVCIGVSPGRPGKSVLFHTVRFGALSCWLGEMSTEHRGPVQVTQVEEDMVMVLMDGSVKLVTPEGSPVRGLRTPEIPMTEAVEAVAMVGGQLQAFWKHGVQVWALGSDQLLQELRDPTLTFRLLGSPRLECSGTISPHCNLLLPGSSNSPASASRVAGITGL
How it was run: as §1

panel of 203 kinases [7] = biological target: T7, panel of 203 kinases (Homo sapiens, UniProt Q96L34); conditions: 10 µM, n=1; kinase MARK4; read-out: Percent inhibition MARK4
T7 construct: purchased DiscoverX (KINOMEscan)
T7 sequence (Q96L34 1-752): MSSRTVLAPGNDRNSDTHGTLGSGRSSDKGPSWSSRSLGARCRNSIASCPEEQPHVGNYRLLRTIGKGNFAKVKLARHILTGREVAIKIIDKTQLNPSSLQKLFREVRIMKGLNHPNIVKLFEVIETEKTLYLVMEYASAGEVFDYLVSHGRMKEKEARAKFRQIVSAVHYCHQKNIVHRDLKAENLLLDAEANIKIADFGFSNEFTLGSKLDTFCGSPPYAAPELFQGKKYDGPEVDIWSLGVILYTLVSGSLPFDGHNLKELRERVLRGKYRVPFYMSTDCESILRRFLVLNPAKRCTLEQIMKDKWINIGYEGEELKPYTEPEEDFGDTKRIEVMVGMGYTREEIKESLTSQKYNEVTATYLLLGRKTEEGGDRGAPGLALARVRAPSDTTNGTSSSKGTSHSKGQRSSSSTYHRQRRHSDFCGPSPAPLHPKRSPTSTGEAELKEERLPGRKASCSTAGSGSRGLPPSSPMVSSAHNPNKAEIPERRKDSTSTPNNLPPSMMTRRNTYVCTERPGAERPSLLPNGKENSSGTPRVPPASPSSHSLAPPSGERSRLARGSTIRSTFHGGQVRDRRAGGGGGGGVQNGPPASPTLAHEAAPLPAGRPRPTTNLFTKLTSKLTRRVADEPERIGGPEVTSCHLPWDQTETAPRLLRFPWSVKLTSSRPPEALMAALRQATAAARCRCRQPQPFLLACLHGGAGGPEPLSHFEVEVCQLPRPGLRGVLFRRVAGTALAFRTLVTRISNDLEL
How it was run: as §1

panel of 203 kinases [8] = biological target: T8, panel of 203 kinases (Homo sapiens, UniProt Q9HC98); conditions: 10 µM, n=1; kinase NEK6; read-out: Percent inhibition NEK6
T8 construct: purchased DiscoverX (KINOMEscan)
T8 sequence (Q9HC98 whole entry): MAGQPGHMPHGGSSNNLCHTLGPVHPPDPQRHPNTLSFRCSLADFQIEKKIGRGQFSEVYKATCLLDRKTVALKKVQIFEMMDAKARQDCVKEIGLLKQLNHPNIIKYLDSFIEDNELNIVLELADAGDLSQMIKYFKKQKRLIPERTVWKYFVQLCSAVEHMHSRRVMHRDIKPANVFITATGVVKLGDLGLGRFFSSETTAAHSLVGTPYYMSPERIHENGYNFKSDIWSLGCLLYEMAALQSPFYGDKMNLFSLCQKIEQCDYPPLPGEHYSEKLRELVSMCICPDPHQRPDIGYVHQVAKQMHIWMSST
How it was run: as §1

T1 sequence (P45983 whole entry): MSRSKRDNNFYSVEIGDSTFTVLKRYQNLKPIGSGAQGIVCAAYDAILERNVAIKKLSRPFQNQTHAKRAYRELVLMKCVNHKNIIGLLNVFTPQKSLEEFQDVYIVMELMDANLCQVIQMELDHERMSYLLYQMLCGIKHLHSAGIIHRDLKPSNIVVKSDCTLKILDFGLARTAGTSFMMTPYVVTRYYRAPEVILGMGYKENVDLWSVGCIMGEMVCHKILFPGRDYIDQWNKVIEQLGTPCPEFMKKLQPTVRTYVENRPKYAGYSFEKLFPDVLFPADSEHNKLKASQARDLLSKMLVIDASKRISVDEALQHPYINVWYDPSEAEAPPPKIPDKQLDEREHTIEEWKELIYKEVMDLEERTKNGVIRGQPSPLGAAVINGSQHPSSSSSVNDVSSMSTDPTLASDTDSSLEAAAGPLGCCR

| SMILES | inhibition at 10 µM (panel of 203 kinases [1]) [%] | inhibition at 10 µM (panel of 203 kinases [2]) [%] | inhibition at 10 µM (panel of 203 kinases [3]) [%] | inhibition at 10 µM (panel of 203 kinases [4]) [%] | inhibition at 10 µM (panel of 203 kinases [5]) [%] | inhibition at 10 µM (panel of 203 kinases [6]) [%] | inhibition at 10 µM (panel of 203 kinases [7]) [%] | inhibition at 10 µM (panel of 203 kinases [8]) [%] |
| --- | --- | --- | --- | --- | --- | --- | --- | --- |
| CN1CCN(c2ccc(Nc3nccc(-c4cnn5ncccc45)n3)cc2C#N)CC1 [Compound 1] | 100 | 0 | 79 | 97 | 99.2 | 99.5 | 0 | 100 |
| COc1ccc(Nc2nccc(-c3cnn4ncccc34)n2)cc1 [Compound 2] | 98.5 | 0 | 0 | 79.3 | 97.4 | 0 | 67.8 | 100 |
| Cc1ccc(O)cc1Nc1ccnc(Nc2cccc(C(N)=O)c2)n1 [Compound 3] | 76.7 | 96 | 0 | 80.2 | 0 | 83.9 | 0 | 0 |
| Cc1ccc(O)cc1N(C)c1ccnc(Nc2cccc(S(N)(=O)=O)c2)n1 [Compound 4] | 87.1 | 95 | 0 | 98.5 | 0 | 99.5 | 0 | 0 |
| Fc1cccc(COc2ccc(Nc3ncnc4c3CN(CCN3CCOCC3)CC4)cc2Cl)c1 [Compound 6] | 0 | 0 | 0 | 0 | 0 | 0 | 0 | 0 |
| COc1cc(Nc2nccc(-c3sc(N)nc3-c3cccc(NC(=O)c4c(F)cccc4F)c3)n2)cc(OC)c1OC [Compound 7] | 100 | 100 | 0 | 99.7 | 0 | 96.3 | 0 | 97.4 |
| C[C@@H](Oc1cc(-c2cnc3ccccn23)sc1C(N)=O)c1ccccc1Cl [Compound 8] | 0 | 0 | 0 | 0 | 0 | 0 | 0 | 0 |
| c1ccc(COc2cccc(-c3ccnc4[nH]ccc34)c2)cc1 [Compound 9] | 0 | 0 | 0 | 0 | 0 | 0 | 0 | 0 |
| Clc1ccc(Nc2ncc(-c3ccccc3)s2)cc1 [Compound 10] | 0 | 0 | 0 | 0 | 0 | 0 | 0 | 0 |
| Nc1ncc2c(-c3ccncc3)c[nH]c2n1 [Compound 11] | 77.1 | 0 | 73.2 | 82 | 0 | 0 | 93.8 | 0 |
